pEC50: −log10 of the molar value. Like-named read-outs stand apart in the source and are kept apart here.
Columns and labels:
[1] = Quantification in postmortem blood and urine of dipyanone-positive forensic cases; settings: for concentration in blood, case #2: autoptic heart blood; for concentration in urine, case #2: autoptic urine
mouse [2] = system: mouse; set-up: method as in Janssen and Jageneau 2011; settings: ref Janssen and Jageneau 2011; cited from earlier work
[3] = set-up: method as in Scott et al. 1947; settings: ref Scott et al. 1947; cited from earlier work
mice = settings: ref Scott et al. 1946, 1947; cited from earlier work
[4] = biological target: human MOR membrane preparation (Homo sapiens, UniProt P35372); assay: biochemical
human MOR membrane preparation, sequence (P35372 whole entry): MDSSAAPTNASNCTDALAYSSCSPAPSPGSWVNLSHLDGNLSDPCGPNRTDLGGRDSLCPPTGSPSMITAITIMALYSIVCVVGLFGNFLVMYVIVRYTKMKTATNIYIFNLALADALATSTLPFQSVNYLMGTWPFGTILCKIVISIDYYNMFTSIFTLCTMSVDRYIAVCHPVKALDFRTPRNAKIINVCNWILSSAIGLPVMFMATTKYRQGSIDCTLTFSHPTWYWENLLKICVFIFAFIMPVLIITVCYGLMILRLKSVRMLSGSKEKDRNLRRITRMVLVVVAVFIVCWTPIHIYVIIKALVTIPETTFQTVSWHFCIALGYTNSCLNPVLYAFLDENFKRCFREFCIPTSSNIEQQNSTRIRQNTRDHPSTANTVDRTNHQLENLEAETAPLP

[5] = biological target: human KOR membrane preparation (Homo sapiens, UniProt P41145); assay: HTRF-based GTP Gi binding assay, KOR; type: biochemical
human KOR membrane preparation, sequence (P41145 whole entry): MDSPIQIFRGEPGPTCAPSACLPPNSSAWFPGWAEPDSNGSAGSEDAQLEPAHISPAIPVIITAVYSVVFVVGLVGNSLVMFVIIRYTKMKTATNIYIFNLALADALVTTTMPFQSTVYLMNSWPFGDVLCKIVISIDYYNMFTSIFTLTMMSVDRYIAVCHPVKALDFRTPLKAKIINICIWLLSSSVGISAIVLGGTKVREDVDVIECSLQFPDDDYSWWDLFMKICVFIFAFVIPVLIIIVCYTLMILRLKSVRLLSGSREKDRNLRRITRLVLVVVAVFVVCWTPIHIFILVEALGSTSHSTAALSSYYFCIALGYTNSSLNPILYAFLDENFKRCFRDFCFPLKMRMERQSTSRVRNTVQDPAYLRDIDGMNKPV

[6] = biological target: human DOR membrane preparation (Homo sapiens, UniProt P41143); assay: HTRF-based GTP Gi binding assay, DOR; type: biochemical
human DOR membrane preparation, sequence (P41143 whole entry): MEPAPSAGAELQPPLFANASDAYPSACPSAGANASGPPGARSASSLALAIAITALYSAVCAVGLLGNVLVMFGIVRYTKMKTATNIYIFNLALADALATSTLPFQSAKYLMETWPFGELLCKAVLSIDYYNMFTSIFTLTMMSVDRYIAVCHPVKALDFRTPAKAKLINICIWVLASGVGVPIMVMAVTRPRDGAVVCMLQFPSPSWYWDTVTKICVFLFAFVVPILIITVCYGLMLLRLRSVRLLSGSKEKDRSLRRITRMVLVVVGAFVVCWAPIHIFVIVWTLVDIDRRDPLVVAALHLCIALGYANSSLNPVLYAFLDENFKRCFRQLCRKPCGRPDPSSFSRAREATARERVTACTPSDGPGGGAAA

[7] = system: ten-donor-pooled cryopreserved human hepatocytes; assay: Human hepatocyte incubation, LC-HRMS/MS metabolite identification; type: in vitro ADME; settings: for Hepatocytes peak area: LC-HRMS, positive ionisation mode, three hours of incubation with human hepatocytes, ND not detected; for portion of the total metabolites' signal: hepatocyte incubation, three hours
Procedure: Dipyanone incubations with human hepatocytes were carried out as previously described (Carlier et al. [2022]; Taoussi et al. [2024]). Briefly, the hepatocytes were thawed in 50 mL of thawing medium at 37 °C. After centrifugation (100 g, 5 min), the supernatant was discarded and the pellet was resuspended in 50 mL of SWM at 37 °C. Following a second centrifugation (100 g, 5 min), the supernatant was removed, and the pellet was resuspended in 2 mL of SWM at 37 °C. Cell viability was determined using the trypan blue exclusion method, and the SWM volume was adjusted to reach a concentration of 2 × 10^6 cells/mL. In sterile 24-well culture plates, 250 µL hepatocyte suspension was gently mixed with 250 µL of dipyanone (20 µmol/L in SWM). The plates were incubated at 37 °C, and reactions were stopped after 0 or 3 h with 500 µL ice-cold acetonitrile, followed by centrifugation (15,000 g, 10 min). Negative (without SWM, hepatocytes, or dipyanone) and positive controls (diclofenac incubation) were incubated for 0 and 3 h under the same conditions to exclude nonspecific reactions and ensure proper metabolic activity. Incubates were stored at – 80° until analysis.
A 100 µL volume of incubate was mixed with 100 µL of acetonitrile and centrifuged for 10 min, 15,000 g at room temperature for protein precipitation (acetonitrile:SWM, 3:1, v/v). The supernatant was dried under a nitrogen stream at 37 °C. […] Again, the solution was centrifuged (10 min, 15,000 g) at room temperature. The resulting supernatant was transferred into vials with a glass insert, and 10 µL was injected into the chromatographic system for analysis.
The total chromatographic run time was 24 min.

[8] = human, in vivo
Procedure: (§1) Samples were thawed at room temperature. A 100 µL aliquot was mixed with 200 µL of acetonitrile and centrifuged for 10 min at 15,000 g at room temperature. The supernatants were evaporated to dryness under nitrogen at 37 °C. The residues were reconstituted in 100 µL of a mixture containing 95% mobile phase A and 5% mobile phase B (v/v). After centrifugation under the same conditions, the supernatants were transferred to autosampler vials with glass inserts. A 10 µL volume was injected into the chromatographic system for analysis.
(§2) To investigate glucuronic acid conjugation, 100 µL of urine was mixed with 10 µL of 10 mol/L ammonium acetate (pH 5.0) and 100 µL of β-glucuronidase (5000 units), then incubated at 37 °C for 90 min. Subsequently, 400 µL of ice-cold acetonitrile was added to the mixtures, which were centrifuged for 10 min at 15,000 g at room temperature. The supernatants were evaporated to dryness under nitrogen at 37 °C and reconstituted in 100 µL of a mixture containing 95% mobile phase A and 5% mobile phase B (v/v). After centrifugation under the same conditions, the supernatants were transferred to autosampler vials with glass inserts. A 10 µL volume was injected into the chromatographic system for analysis.
(§3) The analyses were conducted by liquid chromatography-high-resolution tandem mass spectrometry (LC-HRMS/MS) with a DIONEX UltiMate 3000 liquid chromatographer coupled to a Q Exactive quadrupole-Orbitrap hybrid high-resolution mass spectrometer equipped with a heated electrospray ionisation (HESI) source from Thermo Scientific (Waltham, Massachusetts, USA).
(§4) The compounds were separated using a Kinetex Biphenyl column (150 × 2.1 mm, 2 μm) from Phenomenex (Torrance, California, USA). The separation was achieved using mobile phases A and B at a flow rate of 0.4 mL/min. The gradient elution program was as follows: 2% B was held for 2 min, then increased to 25% B over 12 min, followed by a rapid increase to 95% B within 2 min, and held for 4 min. Subsequently, the initial conditions were restored within 0.1 min and maintained for 3.9 min. The total chromatographic run time was 24 min. Throughout the analysis, the column oven temperature was maintained at 37 ± 1 °C, while the autosampler temperature was set to 10 ± 1 C.
(§5) All samples were analysed in both positive- and negative-ion modes, requiring two separate injections while maintaining the same HESI conditions. […] Prior to each analytical session, mass calibration was performed using certified calibration solutions in both positive and negative ion modes. To enhance accuracy, a lock mass list was compiled for positive- (m/z 279.0933, 144.9821, 146.9803) and negative ion modes (m/z 265.1479, 162.9824, 248.9604).
(§6) The mass spectrometer acquired from 1 to 20 min of the chromatographic run in full-scan HRMS (FullMS)/data-dependent MS/MS (ddMS^2) mode. The FullMS settings were as follows: range, m/z 100 to 650; resolution at full width at half maximum at m/z 200, 70,000; automatic gain control target, 1 × 10^6; and maximum injection time, 200 ms. For ddMS^2, the settings were: automatic gain control target, 2 × 10^5; maximum injection time, 64 ms; isolation window, m/z 1.2; resolution, 17,500; and stepped normalised collision energy, 40, 70, and 90 a.u. A maximum of five ddMS^2 scans were triggered for each FullMS scan, with a minimum intensity of 10^4 and dynamic exclusion of 2.0 s..
(§7) LC-HRMS/MS data were processed with Thermo Scientific Compound Discoverer in a single analysis.

µ-opioid receptor = settings: cited from earlier work
mouse [9] = system: mouse; set-up: method as in Bockmühl and Ehrhart 1949; settings: mouse tail pinch test; ref Bockmühl and Ehrhart 1949; cited from earlier work
[10] = detected alongside other NSOs; ref Vandeputte et al. 2023; cited from earlier work
[11] = Metabolite identification in authentic postmortem urine samples by LC-HRMS/MS; settings: for Urine #1 peak area with β-gluc: postmortem urine case #1, after β-glucuronidase hydrolysis; for Urine #1 peak area with β-gluc / Urine #1 peak area / Urine #2 peak area with β-gluc / Urine #2 peak area: ND not detected; for Urine #1 peak area: postmortem urine case #1, no hydrolysis; for Urine #1 peak area / Urine #2 peak area: positive ionisation mode; for Urine #2 peak area with β-gluc: postmortem urine case #2, after β-glucuronidase hydrolysis; for portion of the total metabolites' signal in urine: both urine samples; for Urine #2 peak area: postmortem urine case #2, no hydrolysis
Procedure: as §1, §2, §3, §4, §5, §6, §7

## 2-fluoromethamphetamine
[1]
  concentration in blood, case #2: 96 ng/mL

## CC(N)Cc1ccccc1F (centres unmarked) [2-fluoroamphetamine]
[1]
  concentration in blood, case #2: 24 ng/mL

## CCC(=O)C(CC(C)N(C)C)(c1ccccc1)c1ccccc1 (centres unmarked) [methadone, reference compound]
Mouse [2]
  median effective dose, mouse hot plate assay: 5.18 mg/kg
[3]
  analgesic threshold: 1 to 2 mg/kg
mice
  LD50 in mice: ~ 17 mg/kg

## CCC(=O)C(CC(C)N1CCCC1)(c1ccccc1)c1ccccc1 (centres unmarked) [Dipyanone, 4,4-diphenyl-6-(1’-pyrrolidinyl)-3-heptanone]
[4]
  pEC50: 7.01
[5]
  pEC50: 6.42
[5]; normalised to U-50488, mean (95% CI), n = 3, read-out: KOR Emax relative to U-50488
  Emax: 13%
[6]
  pEC50: 5.97
[6]; normalised to SNC-80, mean (95% CI), n = 3, read-out: DOR Emax relative to SNC-80
  Emax: 56%
[7]
  Hepatocytes peak area: 7.7 × 10^8
[7]; after three hours of incubation, compared to the controls
  LC-HRMS/MS peak area after incubation relative to its original value: approximately one-sixth
[8]
  Urine #2 peak area: 1.3 × 10^10
µ-opioid receptor
  efficacy (Emax) compared to hydromorphone at the µ-opioid receptor: 155%
µ-opioid receptor; read-out: EC50 at MOR, β-arrestin2 recruitment assay
  pEC50: 7.40
Mouse [2]
  median effective dose, mouse hot plate assay: 6.82 mg/kg
Mouse [9]
  analgesic properties relative to pethidine: 5–10 times
[3]
  analgesic threshold: 1 to 2 mg/kg
mice
  LD50 in mice: ~ 17 mg/kg
[10]
  blood concentration, postmortem case in the USA: 370 ng/mL
[11]
  Urine #1 peak area with β-gluc: 1.3 × 10^10
  Urine #1 peak area: 1.1 × 10^10
  Urine #2 peak area with β-gluc: 8.0 × 10^9
[1]; Germany 2022 and 2023, own unpublished data
  concentration in urine, four dipyanone-related fatalities: 80 to 5500 ng/mL
[1]
  concentration in blood, case #2: 80 ng/mL
[1]; postmortem femoral blood
  concentration in blood, case #1: 720 ng/mL

## CNC1(c2ccccc2)CCCCC1=O (centres unmarked) [deschloroketamine]
[1]
  concentration in blood, case #2: 1.0 ng/mL
  concentration in urine, case #2: 23 ng/mL

## CC=C1N(CCCC(=O)O)C(C)CC1(c1ccccc1)c1ccccc1 (centres unmarked) [M13, 4’-[2-ethylidene-5-methyl-3,3-diphenylpyrrolidin-1-yl]butanoic acid]
[7]
  Hepatocytes peak area: 9.5 × 10^6
  portion of the total metabolites' signal: 27%
[11]
  portion of the total metabolites' signal in urine: 61%
  Urine #1 peak area with β-gluc: 5.7 × 10^9
  Urine #1 peak area: 5.4 × 10^9
  Urine #2 peak area with β-gluc: 3.3 × 10^9
  Urine #2 peak area: 5.6 × 10^9

## CC[C@@H]1CN2CC[C@@]3(O)C(=Nc4cccc(OC)c43)[C@@H]2C[C@@H]1/C(=C\OC)C(=O)OC [7-hydroxymitragynine]
[1]
  concentration in blood, case #2: 4.7 ng/mL
  concentration in urine, case #2: > 200 ng/mL

## CCNC1(c2ccccc2)CCCCC1=O (centres unmarked) [deschloro-N-ethylketamine]
[1]
  concentration in blood, case #2: 46 ng/mL
  concentration in urine, case #2: > 50 ng/mL

## CNC1(c2ccccc2F)CCCCC1=O (centres unmarked) [2-fluoro-deschloroketamine]
[1]
  concentration in blood, case #2: < 1.0 ng/mL
  concentration in urine, case #2: > 50 ng/mL

## CC=C1N(CCCCO)C(C)CC1(c1ccccc1)c1ccccc1 (centres unmarked) [M12, 4’-[2-ethylidene-5-methyl-3,3-diphenylpyrrolidin-1-yl]butan-1’-ol]
[7]
  Hepatocytes peak area: 1.8 × 10^7
  portion of the total metabolites' signal: 50%
[11]
  portion of the total metabolites' signal in urine: 23–26%
  Urine #1 peak area with β-gluc: 3.4 × 10^9
  Urine #1 peak area: 2.3 × 10^9
  Urine #2 peak area with β-gluc: 1.7 × 10^9
  Urine #2 peak area: 2.1 × 10^9

## mitragynine
[1]
  concentration in blood, case #2: 160 ng/mL
  concentration in urine, case #2: > 200 ng/mL

Reference: article PMC12185669 (Archives of Toxicology, 2025)
